Results reported in patent publication US11225481B2 (Centre national de la recherche scientifique, priority 2015, dated 2022).
Where two headings read alike, the source gives them in different places.

Tests used:
[1] = target: T1, BRD4(BD1) (Homo sapiens, UniProt O60885); experiment: Isothermal Titration Calorimetry; format: binding
T1 construct: a BRD4(BD1) synthetic gene that includes a TEV cleavage site was purchased from LifeTechnology; made in house
Source text: For Isothermal Titration Calorimetry (ITC) and crystallogenesis, BRD4(BD1) was produced and purified using a histidine tag affinity chromatography as described by Filipakopoulos et al.9 For these experiments, a pNIC28-BSA4 expression vector containing BRD4(BD1) and a Tobacco Etch Virus (TEV) protease cleavage site have kindly been provided by Stefan Knapp laboratory from the SGC at the University of Oxford. After size exclusion chromatography, the fractions presenting pure BRD4(BD1) after TEV cleavage of the histidine tag were pooled and concentrated to 25 mg/mL for crystallogenesis. For ITC assays, the protein was concentrated up to at 6 mg/mL and the DTT was removed using a buffer exchange column (PD10 from GE healthcare) equilibrated with 10 mM HEPES pH=7.5, 150 mM NaCl. For Homogeneous Time Resolved Fluorimetry (HTRF) experiments, a BRD4(BD1) synthetic gene that includes a TEV cleavage site was purchased from LifeTechnology in a pDONR transport vector before cloning into a pDESTTM15 expression vector for GST affinity purification. Protein production and purification was carried out using similar protocols and buffers as used for the His-BRD4(BD1) system. Purification was carried on GST affinity resin (Thermo Scientific) and reduced glutathione was used for protein release. GST-BRD4(BD1) was further purified by size exclusion chromatography on a Superdex 16/60 Hiload column (GE Healthcare) using 20 mM TRIS pH=8.0, 150 mM NaCl Buffer.
ITC was used to evaluate the thermodynamics parameters of the binding between BRD4(BD1) and the selected compounds, using ITC conditions previously described by Filippakopoulos et al.8 Purified BRD4(BD1) was extensively dialyzed in the ITC buffer containing 10 mM Hepes pH=7.5 and 150 mM NaCl. Compounds were diluted directly in the last protein dialysate prior to experiments. Titrations were carried out on a MicroCal ITC200 microcalorimeter (GE Healthcare, Piscataway, N.J.). Each experiment was designed using a titrant concentration (protein in the syringe) set 10 to 15 times the analyte concentration (compound in the cell generally between 10 and 35 μM) and using 13 injections at 35° C. A first small injection (generally 0.2 μL) was included in the titration protocol in order to remove air bubbles trapped in the syringe prior titration. Raw data were scaled after setting the zero to the titration saturation heat value. Integrated raw ITC data were fitted to a one site non-linear least squares fit model using the MicroCal Origin plugin as implemented in Origin 7 (Origin Lab). Finally, ΔG and TΔS values were calculated from the fitted ΔH and KA values using the equations ΔG=−R.T. ln KA and ΔG=ΔH−TΔS.

[2] = test system: BET bromodomains; experiment: Selectivity profile across BET bromodomains (HTRF); format: binding
Method: Selectivity profiles of bromodomain inhibitors were performed as described in HTRF screen section. […] HTRF detection reagents (EPIgeneous™ Binding Domain kits) were purchased from Cisbio Bioassays and used according to supplier's protocol. GST tagged bromodomain proteins were purchased from BPS Bioscience and histone peptide from Anaspec.

[3] = target: T1, BRD4(BD1); experiment: HTRF assay, disruption of bromodomain/histone peptide interaction; format: binding
Method in brief: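 GST-tagged BRD4(BD1) mixed with histone peptide, then HTRF donor/acceptor added, in the presence of compound (1% final DMSO) and incubated overnight at room temperature. Read at 337 nm excitation, 665/620 nm emission ratio. Percent inhibition set against DMSO vehicle (max) and no-peptide (min) signals; IC50 measured in triplicate.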

[4] = test system: Jurkat cells; experiment: Cell Titer-Glo cell viability (cytotoxicity experiments); format: cell-based; conditions: Homo sapiens, 72 h incubation at 37° C., read-out: EC50, Jurkat T cells viability
Method: The human leukemia cell line Jurkat (ATCC® TIB-152) was maintained in RPMI-1640 medium supplemented with 10% FBS at 37° C. and 5% CO2. Human osteosarcoma cell line (U2OS, ATCC® HTB-96™) was maintained in DMEM supplemented with 10% FBS at 37° C. and 5% CO2.
In antiproliferative assays, compounds were assayed for their growth inhibiting activity towards the described cancer cell lines using the Cell Titer-Glo Luminescent Cell Viability Assay as described by the manufacturer (Promega Corporation). Briefly, […] cells were plated onto 96 well-plates (white with clear bottom (3610, Corning Costar)) in 100 μL media per well immediately before assay. Compounds were added at different concentrations (ranging from 100 to 0.05 μM) to each well and cell cultures were incubated 37° C. during 72 h. Vehicle (DMSO) was used as control and all compounds were tested in constant percentage of DMSO (1%). After addition of 50 μL Cell Titer-GLO, Luminescence was measured using a Centro luminometer LB960 (Berthold). Dose-response curves were generated and effective dose 50 values (EC50) were calculated using non-linear regression analysis (Graph Pad Prism).

CCCCc1c(C)nc2nc(SCc3nc4c(c(=O)[nH]c(=O)n4CCCC)n3CC)nn2c1C [Compound 26b, 3-Butyl-8-(6-butyl-5,7-dimethyl-[1,2,4]triazolo[1,5-a]pyrimidin-2-ylsulfanylmethyl)-7-ethyl-3,7-dihydro-purine-2,6-dione]
entropy term −TΔS ([1]; ITC, BRD4(BD1)): -7.1 kcal/mol | Kd ([1]; Isothermal Titration Calorimetry): 1.4 µM | fold lower IC50 towards BRD4(BD1) as compared to its relatives BD1 ([2]; HTRF): 10 fold | selectivity profile among BET bromodomains ([2]; in words): selective towards BRD4(BD1) | IC50 ([3]; HTRF, Table 1′, TABLE 2, read-out: BRD4(BD1) IC50): 5 µM | IC50 ([3]; HTRF, mean ± SD of three experiments, Table 2, read-out: IC50 μM, effect on BRD4(BD1) activity): 5 µM | LE (Ligand Efficiency) ([3]; LE = 1.4(−log(IC50)/N), BRD4(BD1)): 0.22 | IC50 ([3]; Table 3 selectivity profile, mean ± SD of three experiments, read-out: IC50 (μM) BRD4(BD1)): 5 ± 0.1 µM | EC50 [4]: 27 µM
